Laboratory results as given in ChEMBL document CHEMBL4196226, “5-HT2C Receptor Agonists for the Treatment of Obesity” (ACS Med Chem Lett, 2018).
Calls of active or inactive are those of the source. The calls are words filed in the database; no cut-off is given here.

Species: Rattus norvegicus
Experiment: Antiobesity activity in Sprague-Dawley rat assessed as reduction in cumulative food intake
Assay type: functional, organism-based

Compound: FC(F)(F)CCc1ccnc2c1CC[C@@H]1CNCCN21
- Activity: Active
